Assay results reported in patent US20090176888A1, “COMPOSITION COMPRISING PHYTOSPHINGOSINE OR DERIVATIVE THEREOF” (KOREA INSTITUTE OF RADIOLOGICAL & MEDICAL SCIENCES, priority 2003, published 2009).

Key:
[1] = system: human lung cancer cells (NCI-H460); assay: Apoptosis test (Sub G1, propidium iodide, flow cytometry); type: cell-based
Method: Cancer cells as used in the experiment were human lung cancer cells (NCI-H460, Korean Cell Line Bank), human breast cancer cells (MDA-MB-231, American Type Culture Collection (ATCC)), human uterine cervical cancer cells (HeLa, Korean Cell Line Bank), and blood cancer cells (Jurkat, ATCC). These cancer cells were cultured in RPMI 1640 media containing 10% FBS, penicillin, and streptomycin (GIBCO BRL).
The apoptosis tests were carried out at human lung cancer cells, breast cancer cells, uterine cervical cancer cells, and blood cancer cells as follows:
Phytosphingosine or a derivative thereof was dissolved in DMSO. Samples of the resultant solution of different concentration levels (1, 2, 5, 10, 15, 20 μg/ml) were prepared. According to the following treatment schedule, phytosphingosine treated cancer cells were cultured, washed with PBS (phosphate buffered saline), and fixed with 70% ethanol. The fixed cells were again washed with PBS, suspended in PBS, and 1 mg/ml of RNase was added thereto. Then, DNA was stained with 50 μg/ml of propidium iodide fluorescent dye and the change in the Sub G1 was analyzed by flow cytometry (Becton DICKINSON). The Sub G1, a marker of apoptotic cell death, means DNA distribution lower than that in the G1 phase of cell cycle.
(1-1) In order to determine an anticancer effect of phytosphingosine, 5 ml of 10 μg/ml of phytosphingosine was added to respective dishes containing lung cancer cells, breast cancer cells, uterine cervical cancer cells, and blood cancer cells.
(1-2) In order to examine a correlation of an anticancer effect with the phytosphingosine concentration and post-treatment culture time, each 5 ml of 2, 5, 10, and 15 μg/ml of phytosphingosine was added to respective human uterine cervical cancer cell-containing dishes and human breast cancer cell-containing dishes. In addition, each 5 ml of 5, 10, 15, and 20 μg/ml of phytosphingosine was added to respective human lung cancer cell-containing dishes, and each 5 ml of 1, 5, 10, and 20 μg/ml of phytosphingosine was added to respective human blood cancer cell-containing dishes.
(1-3) An anticancer effect of phytosphingosine derivatives was determined in the same manner as mentioned in (1-1) and (1-2) except using 5 μg/ml of C4PS, C6PS, C8PS, and C12PS.

[2] = system: human breast cancer cells (MDA-MB-231); assay: as above; type: cell-based
Method: (§1) Cancer cells as used in the experiment were human lung cancer cells (NCI-H460, Korean Cell Line Bank), human breast cancer cells (MDA-MB-231, American Type Culture Collection (ATCC)), human uterine cervical cancer cells (HeLa, Korean Cell Line Bank), and blood cancer cells (Jurkat, ATCC). These cancer cells were cultured in RPMI 1640 media containing 10% FBS, penicillin, and streptomycin (GIBCO BRL). The apoptosis tests were carried out at human lung cancer cells, breast cancer cells, uterine cervical cancer cells, and blood cancer cells as follows: Phytosphingosine or a derivative thereof was dissolved in DMSO. Samples of the resultant solution of different concentration levels (1, 2, 5, 10, 15, 20 μg/ml) were prepared. According to the following treatment schedule, phytosphingosine treated cancer cells were cultured, washed with PBS (phosphate buffered saline), and fixed with 70% ethanol. The fixed cells were again washed with PBS, suspended in PBS, and 1 mg/ml of RNase was added thereto. Then, DNA was stained with 50 μg/ml of propidium iodide fluorescent dye and the change in the Sub G1 was analyzed by flow cytometry (Becton DICKINSON). The Sub G1, a marker of apoptotic cell death, means DNA distribution lower than that in the G1 phase of cell cycle. (1-1) In order to determine an anticancer effect of phytosphingosine, 5 ml of 10 μg/ml of phytosphingosine was added to respective dishes containing lung cancer cells, breast cancer cells, uterine cervical cancer cells, and blood cancer cells. (1-2) In order to examine a correlation of an anticancer effect with the phytosphingosine concentration and post-treatment culture time, each 5 ml of 2, 5, 10, and 15 μg/ml of phytosphingosine was added to respective human uterine cervical cancer cell-containing dishes and human breast cancer cell-containing dishes. In addition, each 5 ml of 5, 10, 15, and 20 μg/ml of phytosphingosine was added to respective human lung cancer cell-containing dishes, and each 5 ml of 1, 5, 10, and 20 μg/ml of phytosphingosine was added to respective human blood cancer cell-containing dishes.

[3] = system: human uterine cervical cancer cells (HeLa); assay: as above; type: cell-based
Method: as §1

[4] = system: human uterine cervical cancer cells (NCI-H460 cells); assay: In vivo animal test, tumor volume in transplanted nude mice (phytosphingosine alone); conditions: FIG. 11
Method: Nude mice (body weight: about 20 g) were randomized into 2 groups: a first group is for a control group and a second group is for treatment with phytosphingosine. The femoral region of the nude mice was transplanted with human uterine cervical cancer cells ([…]). Then, tumor volume was allowed to reach a level of […]. A 50 mg/kg solution of phytosphingosine in an olive oil was orally administered to the second group for one week on a daily basis.

[5] = system: human blood cancer cells; assay: Apoptosis test with or without radiation; type: cell-based; conditions: 5 μg/ml in combination with radiation
Method: (§2) (1) Each 5 ml of 20 μg/ml of phytosphingosine and derivatives thereof were added to human lung cancer cell-containing dishes. Some cells were cultured without radiation and others were cultured with radiation with dose of 4 Gy. This apoptosis test was carried out in the same manner in the Experiment 1. Specimens used in this apoptosis test are as follows:
(§3) Control (Cont), IR, PS, PS+IR, C4PS, C4PS+IR, C6PS, C6PS+IR, C8PS, C8PS+IR, C12PS, C12PS+IR.
(§4) (2) Apoptosis tests for human blood cancer cells, uterine cervical cancer cells, and breast cancer cells were carried out in the same manner as in the above (1) except using 5 μg/ml of phytosphingosine and derivatives thereof.

[6] = system: human breast cancer cells; assay: Apoptosis test with or without radiation; type: cell-based; conditions: 5 μg/ml in combination with radiation, FIG. 17
Method: as §2, §3, §4

[7] = system: human uterine cervical cancer cells; assay: Apoptosis test with or without radiation; type: cell-based; conditions: 5 μg/ml in combination with radiation, FIG. 17
Method: as §2, §3, §4

[8] = Oral or transdermal toxicity tests; conditions: rat, in vivo, other: oral or transdermal, rats
[9] = 10 μg/ml phytosphingosine, test (1-1), FIG. 1

## CCCCCCCCCCCCCC[C@@H](O)[C@@H](O)[C@@H](N)CO [phytosphingosine]
[1]; 10 μg/ml or more, culture of 6 hours or more, FIG. 5
  apoptosis: 50%
[1]; [9]
  apoptotic rate: ≥ 50%
[1]; 10 μg/ml, at 3-6 hours after treatment
  apoptosis: ≥ 50%
[2]; 10 μg/ml or more, culture of 12 hours or more, FIG. 4
  apoptosis: ≥ 50%
[2]; [9]
  anticancer effect compared to untreated cancer cells: excellent anticancer effects
[2]; 10 μg/ml, at 12 hours after treatment
  apoptosis: 50%
[3]; [9]
  anticancer effect compared to untreated cancer cells: excellent anticancer effects
[3]; 15 μg/ml or more, culture of 12 hours or more, FIG. 3
  apoptosis: ≥ 50%
[3]; 15 μg/ml, at 12-18 hours after treatment
  apoptosis: 50%
[4]; 50 mg/kg/day oral for one week, at the 40th day
  inhibitory effect on tumor growth compared to control group: potent inhibitory effect on tumor growth
[4]; 50 mg/kg/day oral in olive oil for one week, versus control group
  tumor size change: did not show changes for 20 days
[5]; FIG. 15
  increase of apoptotic rate, concurrent treatment vs PS or radiation alone: ≥ 20%
[5]; after 18 hours, FIG. 16
  increase of apoptotic rate, concurrent treatment vs PS or radiation alone: ≥ 15%
[6]
  enhancement of radiosensitizing effect: excellent
[7]
  enhancement of radiosensitizing effect: excellent
[8]
  LD50: ≥ 2000 mg/kg
